Test results taken from patent publication US7390822B2, “Substituted 4-phenyl-4-[1H-imidazol-2-yl]-piperidine derivatives for reducing ischaemic damage” (Janssen Pharmaceutica, N.V., priority 2001, dated 2008).
Where “and” joins values, the source holds several entries; their conditions need not be identical. Equal values may be shown once.

Experiments:
rat heart = test: Rat-Langendorff model (isolated perfused heart, ischaemia/reperfusion); details: individual rat hearts; for EDP: Degree of normalisation of EDP during reperfusion (amount above baseline EDP): 0 = recuperation to baseline EDP; for IC: Ischemic contracture: 4 μg/500 ml buffer, 20 min ischaemia; for Vfib: Number of ventricullar fibrillations during reperfusion: 40 min reperfusion
Method: A rat heart is rapidly dissected, attached by the aorta to a cannula and perfused with a physiological buffer (modified Krebs-Henseleit buffer: NaCl 118 mmol/l, KCl 4.7 mmol/l, MgSO4 1.2 mmol/l, KH2PO4 1.2 mmol/l, CaCl2 1.8 mmol/l, NaHCO3 23 mmol/l, glucose 11 mmol/l) without blood under 80 mmHg perfusion pressure. Oxygen is dissolved in the physiological buffer. The heart is paced atrially at 350 beats per minute. A balloon that can be optionally filled (adjustment preload) is inserted into the left ventricle. Diastolic pressure and the pressure developped are measured as well as the maximal rate of pressure development as a measure of contractility (inotropism) and the minimal rate of pressure decay as a measure of relaxation. Advantages of this model are: the heart is isolated and studied in controlled circumstances without interaction with other organs and the method is reasonably rapid and cheap. Disadvantages are: no blood perfusion, with only dissolved oxygen, therefore greater coronary flow rates with considerable vasodilatation of the coronary system; a closed system without metabolism and without interaction with other organs and a small animal model, relatively far away from clinical reality.
The study period of ischaemia is 20 minutes. The measurements after the study period of ischaemia (reperfusion phase) always last 40 minutes. Measurements before the study period of ischaemia last 30 minutes and are performed after stabilization. In the ischaemic preconditioning group the following is measured during these 30 minutes: 10 minutes baseline, 5 minutes ischaemia, 5 minutes reperfusion, 5 minutes ischaemia and 5 minutes reperfusion. In the group of the compounds according to the invention (4 μg/500 ml buffer solution) there is first 15 minutes baseline followed by 15 minutes treatment. Consequently, everything is time-matched.

[1] = tested on: sheep heart (left ventricle); test: Sheep model (normothermic myocardial ischaemia during extra corporal circulation); assay type: in vivo
Method: The model is a sheep anaesthetized with ketamine and isoflurane. The extra corporal circulation is connected by venous cannulation of both caval veins and arterial cannulation via the carotid. An additional cannula with flow meter in the right ventricle gives the flow rate over the coronary arteries. In addition to measurements of heart rate and arterial blood pressure, the left ventricle instantaneous pressure is measured as well as the left ventricle volumes via a conductance catheter. There is also a side-tubing on the arterial cannula of the artificial heart leading to the pulmonary artery. Via this route it is possible to modulate the left ventricle preload in a perfectly controlled manner in order to obtain load-independent measurements of the left ventricle contractility before and after the study period of ischaemia. Cardiac oxygen consumption was also measured as well as regional perfusion with the aid of coloured microspheres.
The study period of ischaemia was 30 minutes while the heart remained normothermic and was fully unloaded by the extra corporal circulation and venting of the ventricles. The control group was time-matched with the other groups. The ischaemic preconditioning group was subjected to 3 times 5 minutes of preconditioning ischaemia with 5 minute reperfusion intervals. In the three groups extra corporal circulation was started 30 minutes before the study period of ischaemia was imposed. The extra corporal circulation was stopped 40 minutes after the end of the study period of ischaemia. […] Only these four will be processed here. In the other groups, 7 experiments are always processed. Before each measurement of pressure-volume ratios in the left ventricle the system was switched to the right heart bypass model in which the venous flow is diverted into the extra corporal circulation via the caval veins and the blood is returned to the sheep via the pulmonary artery.

[2] = molecular target: cloned human μ opioid receptor (Homo sapiens, UniProt P35372); test: Radioligand binding, competition with [3H]DAMGO; details: read-out: Agonist receptor binding (pIC50) mu (converted)
Chain of cloned human μ opioid receptor (P35372 whole entry): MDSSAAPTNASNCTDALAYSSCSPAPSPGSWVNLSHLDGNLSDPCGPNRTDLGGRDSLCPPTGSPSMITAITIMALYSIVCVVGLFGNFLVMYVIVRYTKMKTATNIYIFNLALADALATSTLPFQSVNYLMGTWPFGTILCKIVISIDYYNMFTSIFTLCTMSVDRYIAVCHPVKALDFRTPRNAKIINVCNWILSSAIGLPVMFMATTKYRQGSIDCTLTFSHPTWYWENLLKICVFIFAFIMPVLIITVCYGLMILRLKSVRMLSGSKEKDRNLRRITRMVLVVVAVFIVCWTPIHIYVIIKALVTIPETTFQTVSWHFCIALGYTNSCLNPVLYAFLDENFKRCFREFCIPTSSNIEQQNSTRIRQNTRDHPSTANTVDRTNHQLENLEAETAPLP

| SMILES | melting point | Recup: % recuperation in developed pressure at the end of reperfusion (rat heart) | EDP: Degree of normalisation of EDP during reperfusion (amount above baseline EDP) (rat heart) | IC: Ischemic contracture (rat heart) | Vfib: Number of ventricullar fibrillations during reperfusion (rat heart) | also measured |
| --- | --- | --- | --- | --- | --- | --- |
| CCOC(=O)N1CCC(c2ccccc2)(c2nccn2Cc2ccc(C(=O)O)cc2)CC1 [Compound 8] | 251.6 °C | – | – | – | – | – |
| CCN/C(=N/C#N)N1CCC(c2ccccc2)(c2nccn2Cc2ccccc2)CC1 [Compound 4] | 84.2 °C | – | – | – | – | – |
| CC(C)OC(=O)N1CCC(c2ccccc2)(c2nccn2Cc2ccccc2)CC1 [Compound 25] | – | 79% and 85% and 75% | +6 mmHg (2×) and +10 mmHg | 5 mmHg and 7 mmHg (2×) | 0 and 1 (short) and 2 (short) | – |
| O=C(c1ccccc1)N1CCC(c2ccccc2)(c2nccn2Cc2ccccc2)CC1 [Compound 2] | 122.7 °C | – | – | – | – | – |
| CCOC(=O)N1CCC(c2ccccc2)(c2nccn2Cc2ccccc2)CC1 [Compound 1, ethyl 4-phenyl-4-[1-(phenylmethyl)-1H-imidazol-2-yl]-1-piperidinecarboxylate] | – | 92% and 85% and 82% | 0 mmHg and +7 mmHg and +8 mmHg | 4 mmHg and 6 mmHg and 8 mmHg | 0 (2×) and 1 (short) | Tau (ventricular relaxation) ([1]; compared to control group 70 and 100 minutes after end of ischaemia): significantly lower; Preload recruitable stroke work (PRSW) ([1]; compared to control group after 70 and 100 minutes of reperfusion): significantly better; Cardiac flow after reperfusion ([1]; compared to control group, no significant difference): tendency for cardiac flow to be higher; Contractile efficacy (O2-consumption converted into PVA) ([1]; control group 32.8%, ischaemic preconditioning group 44.5%, p<0.001): 46.7% |
| CCCOC(=O)N1CCC(c2ccccc2)(c2nccn2Cc2ccccc2)CC1 [Compound 24] | – | 91% and 85% and 87% | 0 mmHg and +5 mmHg and +7 mmHg | 10 mmHg and 5 mmHg and 7 mmHg | 0 (2×) and 1 (short) | – |
| COC(=O)c1ccc(Cn2ccnc2C2(c3ccccc3)CCN(c3nc4ccccc4o3)CC2)cc1 [Compound 102] | – | – | – | – | – | IC50 [2]: > 1000 nM |
| CCOC(=O)N1CCC(c2ccccc2)(c2nccn2Cc2ccc(C(=O)OC)cc2)CC1 [Compound 3] | 149.1 °C | – | – | – | – | – |
